Here are results for ten compounds from paper PMC10125328 (ACS Bio & Med Chem Au, 2023).

Test [1] addresses T1, Ftu-1 β-lactamase (Francisella tularensis, UniProt Q5NH60). As to conditions: cited from earlier work.
Test [2] has as its target T1, Ftu-1 β-lactamase. Briefly: biochemical.
Test [3] has as its target T1, Ftu-1 β-lactamase. The format is biochemical.

By Ki is commonly meant the dissociation constant of the complex between target and ligand, obtained from inhibition or displacement. Read a high Ki as lower affinity. In general, Km refers to the substrate concentration at which the rate is half of its maximum. What is called Vmax is the top rate of the reaction or transport when substrate is in excess.

The structures appear in SMILES notation. “And” between values parts separate entries of the source, which are not always exact repeats. Identical values can stand only once. Like-named read-outs stand apart in the source and are kept apart here.

T1 sequence (Q5NH60 1-287): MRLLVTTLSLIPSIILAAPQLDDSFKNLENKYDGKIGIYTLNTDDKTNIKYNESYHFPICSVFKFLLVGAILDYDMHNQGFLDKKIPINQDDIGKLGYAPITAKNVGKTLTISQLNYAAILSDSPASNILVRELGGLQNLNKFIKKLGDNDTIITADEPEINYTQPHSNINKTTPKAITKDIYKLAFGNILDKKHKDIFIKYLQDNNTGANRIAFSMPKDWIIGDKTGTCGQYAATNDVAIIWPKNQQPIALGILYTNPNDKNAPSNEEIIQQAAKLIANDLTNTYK

Regarding `C[C@H]1[C@H](NC(=O)/C(=N\OC(C)(C)C(=O)O)c2csc(N)n2)C(=O)N1S(=O)(=O)O` [aztreonam], the “hydrolysis in the presence of Ftu-1” value at Ftu-1 β-lactamase [1] was “unhydrolyzed”.

`C[C@]1(Cn2ccnn2)[C@H](C(=O)O)N2C(=O)C[C@H]2S1(=O)=O` [tazobactam]: at Ftu-1 β-lactamase [2], the Ki was 1.19 µM and 1.2 µM.

For `CC1(C)[C@H](C(=O)O)N2C(=O)C[C@H]2S1(=O)=O` [sulbactam], the Ki on Ftu-1 β-lactamase [2] is 21.1 µM.

In turn, `O=C(O)[C@H]1/C(=C/CO)O[C@@H]2CC(=O)N21` [clavulanic acid] displayed a Ki at Ftu-1 β-lactamase [2] of 30.7 µM. This Ki and that of the compound before are within 1.5-fold of each other.

For `O=C(Cc1cccs1)N[C@@H]1C(=O)N2C(C(=O)O)=C(CSc3ccc([N+](=O)[O-])c(C(=O)O)c3)CS[C@H]12` [CENTA], the Michaelis constant (Km) at Ftu-1 β-lactamase [3] (pH 4.8) was 655 ± 37.1 µM; at Ftu-1 β-lactamase [3] (pH 7.6), 128 ± 57 µM; at Ftu-1 β-lactamase [3] (pH 8.5), 228 ± 11.1 µM; at Ftu-1 β-lactamase [3] (pH 10.5) it was 218 ± 30.8 µM. Also, the Vmax amounted to 1.001 ± 0.005 µM/min on Ftu-1 β-lactamase [3] (pH 4.8); 13.12 ± 0.62 µM/min at Ftu-1 β-lactamase [3] (pH 5.8); 24.8 ± 0.9 µM/min on Ftu-1 β-lactamase [3] (pH 6.4); 30.5 ± 0.5 µM/min on Ftu-1 β-lactamase [3] (pH 7.2); 49.51 ± 15.84 µM/min at Ftu-1 β-lactamase [3] (pH 7.6). Besides, the kcat on Ftu-1 β-lactamase [3] (pH 4.8) amounted to 101 ± 1 min^–1; on Ftu-1 β-lactamase [3] (pH 5.8) it was 1312.75 ± 62.75 min^–1; on Ftu-1 β-lactamase [3] (pH 7.6), 4951.67 ± 1583 min^–1; on Ftu-1 β-lactamase [3] (pH 9.5), 38.96 ± 11.2 min^–1; on Ftu-1 β-lactamase [3] (pH 10.5), 8.85 ± 0.15 min^–1.

`C[C@@H](O)[C@H]1C(=O)N2C(C(=O)O)=C(S[C@@H]3CN[C@H](C(=O)N(C)C)C3)[C@H](C)[C@H]12` [meropenem] returned a Ki on Ftu-1 β-lactamase [2] of 1.53 µM. This counts as single-digit micromolar.

`CC(C)(O/N=C(\C(=O)N[C@@H]1C(=O)N2C(C(=O)[O-])=C(C[n+]3ccccc3)CS[C@H]12)c1csc(N)n1)C(=O)O` [ceftazidime]: the kcat at Ftu-1 β-lactamase [1] was 0.022 ± 0.001 S^–1.

Consider `C[C@@H](O)[C@H]1C(=O)N2C(C(=O)O)=C(SCCN=CN)C[C@H]12` [imipenem], for which the inhibition constant Ki on Ftu-1 β-lactamase [2] worked out at 73.8 µM. Also, at Ftu-1 β-lactamase [1], the Km is 31 ± 4 µM and the kcat is recorded as 0.017 ± 0.001 S^–1.

In the case of `CO/N=C(\C(=O)N[C@@H]1C(=O)N2C(C(=O)O)=C(COC(N)=O)CS[C@H]12)c1ccco1` [cefuroxime], the Km on Ftu-1 β-lactamase [1] was 14 ± 2 µM.

Take `CO[C@@]1(NC(=O)Cc2cccs2)C(=O)N2C(C(=O)O)=C(COC(N)=O)CS[C@@H]21` [cefoxitin]: the “hydrolysis in the presence of Ftu-1” value at Ftu-1 β-lactamase [1] is listed as “unhydrolyzed”.
